Consider two compounds from patent US20140302113A1, “SYSTEMS, DEVICES, AND METHODS FOR EMBEDDING DRUG MOLECULES INTO MEDICAL CATHETERS OR TUBES” (priority 2011, published 2014).

Like-named read-outs stand apart in the source and are kept apart here.

The conditions of data set [1]: Foley catheter of Example 6. On the procedure: The tip and the discharge end were discarded because they would not be expected to touch the patient's mucosa during the catheter use. […] The holes on both ends of each of the four catheter sections were blocked. Each of the four catheter sections was placed into a glass scintillation vial. A 0.15 M PBS solution with pH 7.4 was used as release medium. 20.7 mL of the medium was added into the vial to submerge the entire catheter section. The vial was closed tightly and a vinyl tape was wrapped around the cap to prevent solvent evaporation. The vial was placed into a 37° C. water bath with no shaking (mimicking human use), and the time was set as t=0. […] The catheter sections was removed from the vial, dried with a tissue, and placed into a new vial with the same amount of release medium. The new vial was then put back into the same water bath. This process was repeated at each time point. The samples were analyzed with HPLC.

Data set [2] is classed as physicochemical. To be noted: loaded catheter in Example 4. On the procedure: 0.16 g of chlorhexidine diacetate was dissolved in 15.8 gram distilled water in a glass jar to form a clear solution. A section of a silicone coated latex Foley catheter (Bardia Foley Catheter, 16 Fr. Reorder No. 123516A, Lot MYUDR067), approximately 16 cm long, was placed into the jar and completely submerged in the solution. 0.08 g of a 10 wt % NaOH solution was added into the loading solution to increase the pH. […] The jar was closed with a cap and placed into an oven with temperatures cycling between about 62° C. and 68° C. The jar was kept in the oven for the next 120 hours and was shaken occasionally during the 120 hour heat treatment period.
The release rates of chlorhexidine from the loaded catheter in Example 4 were measured as follows. The catheter section was thoroughly washed and cut into two pieces, Section A (7.774 cm) and Section B (8.055 cm). Each section was submerged into 17 mL of a 0.15 M pH7.4 phosphate buffer held in a glass vial, which was placed into a 37° C. water bath. At each time point, the catheter section was retrieved from the glass vial, dried, and placed into another glass vial containing 17 mL of a fresh pH 7.4 phosphate buffer. The vial was then placed into the 37° C. water bath. The amount of chlorhexidine in the solution remaining in the first vial was measured with HPLC. This process was repeated at each time point. The average flux of chlorhexidine released from the catheter wall during the period between the current and previous time points was calculated by dividing the total amount of chlorhexidine in the solution (microgram) by the total surface area of the catheter section (cm^2) and by the length of time between the two time points (hour). The result is the amount of chlorhexidine released per square centimeter of the catheter wall per hour. The average chlorhexidine release flux and the average amount of chlorhexidine released from each square centimeter of the catheter wall per 24 hour period are listed in Table 3.

The conditions of data set [3]: solution with pH about 7.4; cited from earlier work.

Regarding `[H]/N=C(\N/C(=N/[H])NCCCCCCNC(=N)NC(=N)Nc1ccc(Cl)cc1)Nc1ccc(Cl)cc1` [Chlorhexidine, chlorhexidine], the “Average Released Chlorhexidine Amount/cm^2/24 hr” value in data set [1] (time 0.17 day) is recorded as 2.2 micrograms; in data set [1] (time 0.5 day), 3.8 micrograms; in data set [1] (time 1.0 day), 2.8 micrograms; in data set [1] (time 1.5 day), 3.4 micrograms; in data set [1] (time 2 day) it was 3.2 micrograms; in data set [1] (time 2.5 day), 2.4 micrograms. Moreover, the “Average Released Chlorhexidine Amount/cm^2/24 hr” value in data set [1] (time 3.1 day) is listed as 1.6 micrograms; in data set [1] (time 3.6 day) it was 1.5 micrograms; in data set [1] (time 4 day), 1.7 micrograms; in data set [1] (time 4.5 day), 1.0 micrograms; in data set [1] (time 5 day), 1.3 micrograms; in data set [1] (time 5.5 day), 1.0 micrograms. In addition, the “Average Released Chlorhexidine Amount/cm^2/24 hr” value in data set [1] (time 6.5 day) worked out at 0.6 micrograms; in data set [1] (time 7 day), 0.7 micrograms; in data set [1] (time 7.5 day), 0.6 micrograms; in data set [1] (time 8 day), 0.5 micrograms; in data set [1] (time 9 day) it was 0.5 micrograms; in data set [1] (time 9.5 day), 0.5 micrograms. In addition, the “Average Released Chlorhexidine Amount/cm^2/24 hr” value in data set [1] (time 10 day) is recorded as 0.5 micrograms; in data set [1] (time 11 day) it was 0.5 micrograms; in data set [1] (time 12 day) it was 0.5 micrograms; in data set [1] (time 14 day), 0.4 micrograms. The “period with more than 1 microgram of chlorhexidine released from each square centimeter of wall surface per 24 hour” value in data set [2] is listed as “at least 11 days”. For the same compound, the “Average Chlorhexidine Amount/cm^2/24 hr” value in data set [2] (time 0.17 day) is 218 micrograms; in data set [2] (time 0.5 day) it was 43.9 micrograms; in data set [2] (time 1.1 day), 21.5 micrograms; in data set [2] (time 1.6 day), 13.1 micrograms; in data set [2] (time 2 day) it was 10.2 micrograms; in data set [2] (time 2.5 day) it was 4.5 micrograms. The “Average Chlorhexidine Amount/cm^2/24 hr” value in data set [2] (time 3 day) turned out to be 4.3 micrograms; in data set [2] (time 3.5 day), 2.6 micrograms; in data set [2] (time 4.0 day), 3.3 micrograms; in data set [2] (time 4.5 day) it was 3.2 micrograms; in data set [2] (time 5 day), 3.2 micrograms; in data set [2] (time 5.5 day), 2.9 micrograms. Moreover, the “Average Chlorhexidine Amount/cm^2/24 hr” value in data set [2] (time 6 day) is on record as 2.6 micrograms; in data set [2] (time 6.5 day), 2.2 micrograms; in data set [2] (time 7 day) it was 1.8 micrograms; in data set [2] (time 8 day) it was 1.2 micrograms; in data set [2] (time 8.5 day), 1.4 micrograms; in data set [2] (time 9.0 day), 1.7 micrograms. For the same compound, the “Average Chlorhexidine Amount/cm^2/24 hr” value is reported as 2.0 micrograms in data set [2] (time 10.0 day), 1.1 micrograms in data set [2] (time 11 day) and 0.8 micrograms in data set [2] (time 12 day).
For the compound `CC(=O)O.CC(=O)O.NC(=N\CCCCCC/N=C(N)/N=C(\N)Nc1ccc(Cl)cc1)/N=C(\N)Nc1ccc(Cl)cc1` [Chlorhexidine diacetate, chlorhexidine diacetate], in data set [3], the “concentration that can be dissolved in water” value is “higher than 1.5 wt %”.
